In US6605459B2, “Methods for measuring cysteine and determining cysteine synthase activity” (Paradigm Genetics, Inc., priority 2001, dated 2003):

Target: T1, cysteine synthase (Arabidopsis thaliana, UniProt Q9S6Z7)
T1 construct: made in house; host or cells: E. coli BL21(DE3)lysS (pET30/CS) or Sf-9 insect cells (baculovirus, pFB/CS)
Test: Assay tolerance of DMSO in the cysteine synthase assay
Type: biochemical
Conditions: 0 to 2% DMSO (by volume)
Description: A cysteine synthase assay was performed using various amounts of DMSO to test the assay compatibility of the DMSO. The results are shown in FIG. 24, where all values are the mean of triplicate determinations, and standard deviations are indicated.

T1 sequence (Q9S6Z7 whole entry): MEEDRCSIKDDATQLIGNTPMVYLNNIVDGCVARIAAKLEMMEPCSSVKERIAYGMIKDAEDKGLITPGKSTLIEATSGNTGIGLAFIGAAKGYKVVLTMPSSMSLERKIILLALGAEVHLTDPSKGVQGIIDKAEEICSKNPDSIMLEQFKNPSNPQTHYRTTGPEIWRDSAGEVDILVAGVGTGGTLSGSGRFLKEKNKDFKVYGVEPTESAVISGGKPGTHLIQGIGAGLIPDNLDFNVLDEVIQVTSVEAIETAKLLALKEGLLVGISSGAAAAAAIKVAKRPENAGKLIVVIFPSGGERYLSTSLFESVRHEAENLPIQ

## C[S+](C)[O-] [DMSO, dimethyl sulfoxide]
  inhibitory effect on cysteine synthase activity: No inhibitory effect
